# Measured values from patent publication US20030162777A1, “Novel N-acylated heterocycles” (Recordati S.A., priority 2001, published 2003).
# pKi: −log10 of the molar value.
# Biological target: T1, human 5HT1A-serotonergic receptor (Homo sapiens, UniProt P08908)
# T1 construct: expressed in transfected cells; host or cells: HeLa (human cell line), stably transfected; cell membranes used
# T1 sequence (P08908 1-422): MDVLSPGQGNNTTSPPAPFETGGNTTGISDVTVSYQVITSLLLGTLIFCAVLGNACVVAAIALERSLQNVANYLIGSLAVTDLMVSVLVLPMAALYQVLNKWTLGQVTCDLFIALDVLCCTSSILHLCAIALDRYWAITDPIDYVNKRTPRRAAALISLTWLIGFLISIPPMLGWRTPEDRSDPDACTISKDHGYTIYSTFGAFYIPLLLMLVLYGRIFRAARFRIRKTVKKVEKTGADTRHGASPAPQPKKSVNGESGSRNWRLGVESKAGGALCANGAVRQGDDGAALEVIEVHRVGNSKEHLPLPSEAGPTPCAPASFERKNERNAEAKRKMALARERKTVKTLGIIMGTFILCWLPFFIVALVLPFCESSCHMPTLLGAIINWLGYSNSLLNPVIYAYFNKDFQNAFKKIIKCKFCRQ
# Test: Radioligand binding to recombinant 5-HT1A receptors
# Details: [3H]8-OH-DPAT 1 nM, membranes of HeLa cells with human 5-HT1A receptor; Ki from IC50 by Cheng & Prusoff; read-out: Binding affinity for 5HT1A receptors, Ki
# Procedure: Genomic clone G-21 coding for the human 5HT1A-serotonergic receptor was stably transfected in a human cell line (HeLa). HeLa cells were grown as monolayers in Dulbecco's modified Eagle medium (DMEM), containing 10% foetal bovine serum, gentamicin ([…]) and 5% carbon dioxide, at 37° C. The cells were detached from the growth flask at 95% confluence by a cell scraper and were lysed in cold 5 mM Tris and 5 mM EDTA buffer (pH 7.4). The homogenates were centrifuged at 40000×g×20 minutes and the pellets were resuspended in a small volume of cold 5 mM Tris and 5 mM EDTA buffer (pH 7.4) and immediately frozen and stored at −70° C. until use. On the day of experiment, the cell membranes were resuspended in incubation buffer: 50 mM Tris HCl (pH 7.4), 2.5 mM MgCl2, […] (Fargin et al., Nature 335, 358-360, 1988). The membranes were incubated in a final volume of 1 ml for 30 minutes at 30° C. with 1 nM [^3H]8-OH-DPAT, in the absence or presence of the test compounds. Non-specific binding was determined in the presence of 10 μM 5-HT. Incubation was stopped by addition of cold Tris-HC 1 buffer and rapid filtration through a 0.2%-polyethyleneimine-pretreated Whatman-GF/B or Schleicher-&-Schuell-GF52 filter.
# The affinity of the tested compounds was evaluated as inhibition of specific binding of the radioligand to 5-HT1A receptors (IC50) by using the non-linear curve-fitting program Allfit (De Lean et al., Am. J. Physiol. 235, E97-E102 (1978). The IC50 value was converted to an affinity constant (Ki) by the equation of Cheng & Prusoff (Cheng Y. C., Prusoff W. H., Biochem. Pharmacol. 22, 3099-3108 (1973)).
row,Compound,pKi
1,"Cc1oc(S(=O)(=O)N2CCCC2)cc1C(=O)N1c2ccccc2CCC1CN1CCN(c2cccc3[nH]ccc23)CC1 (centres unmarked) [Example 68A59, 1-(4-Indolyl)-4-[1-(2-methyl-5-pyrrolidin-1-ylsulfonylfuran-3-carbonyl)-1,2,3,4-tetrahydroquinoline-2-ylmethyl]piperazine]",7.33
2,"COc1ccc(NC(=O)N2c3ccccc3CCC2CN2CCN(c3cccc4[nH]ccc34)CC2)cc1 (centres unmarked) [Example 69A13, 1(4-Indolyl)-4-[1-(4-methoxyphenylaminocarbonyl)-1,2,3,4-tetrahydroquinoline-2-ylmethyl]piperazine]",7.67
3,"C[C@@H](NC(=O)N1c2ccccc2CCC1CN1CCN(c2cccc3[nH]ccc23)CC1)c1ccccc1 (single isomer, unassigned) [Example 69A5]",7.80
4,"CS(=O)(=O)N(CC(=O)N1c2ccccc2CCC1CN1CCN(c2cccc3[nH]ccc23)CC1)Cc1ccccc1 (centres unmarked) [Example 68A71, 1-[1-[2-(N-Benzyl-N-methanesulphonylamino)acetyl]-1,2,3,4-tetrahydroquinoline-2-ylmethyl]-4-(4-indolyl)piperazine]",7.63
5,"O=C(C1CCCCC1)N1c2ccccc2CCC1CN1CCN(c2cccc(Cl)c2Cl)CC1 (centres unmarked) [Example 72A8, 1-(1-Cyclohexanecarbonyl-1,2,3,4-tetrahydroquinolin-2-ylmethyl)-4-(2,3-dichlorophenyl)piperazine]",7.50
6,"O=C(c1ccc(O)cc1)N1c2ccccc2CCC1CN1CCN(c2cccc3[nH]ccc23)CC1 (centres unmarked) [Example 68A68, 1-[1-(4-Hydroxybenzoyl)-1,2,3,4-tetrahydroquinoline-2-ylmethyl]-4-(4-indolyl)piperazine]",8.12
7,"O=C(C1CCCCC1)N1c2ccccc2CCC1CN1CCN(c2ccccc2OS(=O)(=O)C(F)(F)F)CC1 (centres unmarked) [Example 79, 1-(1-Cyclohexanecarbonyl-1,2,3,4-tetrahydroquinoline-2-ylmethyl)-4-(2-triluoromethanesulphonyloxyphenyl)piperazine]",8.35
8,"O=C(c1cccc(Cl)c1)N1c2ccccc2CCC1CN1CCN(c2cccc3[nH]ccc23)CC1 (centres unmarked) [Example 68A6, 1-[1-(3-Chlorobenzoyl)-1,2,3,4-tetrahydroquinoline-2-ylmethyl]-4-(4-indolyl)piperazine]",7.85
9,"O=S(=O)(c1ccc(F)cc1)N1c2ccccc2CCC1CN1CCN(c2cccc3[nH]ccc23)CC1 (centres unmarked) [Example 70A4, 1-[1-(4-Fluorophenylsulphonyl)-1,2,3,4-tetrahydroquinoline-2-ylmethyl]-4-(4-indolyl)piperazine]",7.68
10,"O=C(COc1ccc(Cl)cc1)N1c2ccccc2CCC1CN1CCN(c2cccc3[nH]ccc23)CC1 (centres unmarked) [Example 68A51, 1-[1-[2-(4-Chlorophenoxy)acetyl]-1,2,3,4-tetrahydroquinoline-2-ylmethyl]-4-(4-indolyl)piperazine]",7.81
11,"O=C(CCOc1ccccc1)N1c2ccccc2CCC1CN1CCN(c2cccc3[nH]ccc23)CC1 (centres unmarked) [Example 68A61, 1-(4-Indolyl)-4-[1-(3-phenoxypropionyl)-1,2,3,4-tetrahydroquinoline-2-ylmethyl]piperazine]",7.71
12,"O=C(c1ccsc1)N1c2ccccc2CCC1CN1CCN(c2cccc3[nH]ccc23)CC1 (centres unmarked) [Example 68A20, 1-(4-Indolyl)-4-[1-(3-thienylcarbonyl)-1,2,3,4-tetrahydroquinoline-2-ylmethyl]piperazine]",7.51
13,"CC(C)(C)OC(=O)N1CCC(C(=O)N2c3ccccc3CCC2CN2CCN(c3cccc4[nH]ccc34)CC2)CC1 (centres unmarked) [Example 71A3, 1-[1-[4-(1-tert-Butoxycarbonylpiperidino)carbonyl]-1,2,3,4-tetrahydroquinoline-2-ylmethyl]-4-(4-indolyl)piperazine]",7.39
14,O=C(Cc1ccc(C(F)(F)F)cc1)N1c2ccccc2CCC1CN1CCN(c2cccc3[nH]ccc23)CC1 (centres unmarked) [Example 68A31],7.38
15,"1-(4-Chloro-2-1-propoxyphenyl)-4-(1-cyclohexanecarbonyl-1,2,3,4-tetrahydroquinoline-2-ylmethyl)piperazine [Example 60A]",8.00
16,"CN(C)c1ccc(C(=O)N2c3ccccc3CCC2CN2CCN(c3cccc4[nH]ccc34)CC2)cc1 (centres unmarked) [Example 68A1, 1-[1-(4-Dimethylaminobenzoyl)-1,2,3,4-tetrahydroquinoline-2-ylmethyl]-4-(4-indolyl)piperazine]",7.62
17,"N#Cc1ccc(S(=O)(=O)N2c3ccccc3CCC2CN2CCN(c3cccc4[nH]ccc34)CC2)cc1 (centres unmarked) [Example 70A5, 1-[1-(4-Cyanophenylsulphonyl)-1,2,3,4-tetrahydroquinoline-2-ylmethyl]-4-(4-indolyl)piperazine]",7.39
18,"Cn1cc(C(=O)N2c3ccccc3CCC2CN2CCN(c3cccc4[nH]ccc34)CC2)c2ccccc21 (centres unmarked) [Example 68A47, 1-(4-Indolyl)-4-[1-(1-methyl-3-indolylcarbonyl)-1,2,3,4-tetrahydroquinoline-2-ylmethyl]piperazine]",7.77
19,"CC(=O)n1ccc2c(N3CCN(CC4CCc5ccccc5N4C(=O)C4CCCCC4)CC3)cccc21 (centres unmarked) [Example 35A25, 1-(1-Acetyl-4-indolyl)-4-(1-cyclohexanecarbonyl-1,2,3,4-tetrahydroquinoline-2-ylmethyl)piperazine]",8.00
20,"Cc1ccccc1NC(=O)N1c2ccccc2CCC1CN1CCN(c2cccc3[nH]ccc23)CC1 (centres unmarked) [Example 69A, 1-(4-Indolyl)-4-[1-(2-methylphenylaminocarbonyl)-1,2,3,4-tetrahydroquinoline-2-ylmethyl]piperazine]",8.14

# Further lines, results first:
row,pKi,Compound
1,7.82,"COc1cccc(N2CCN(CC3CCc4ccccc4N3C(=O)C3CCCCC3)CC2)c1 (centres unmarked) [Example 72A25, 1-(1-Cyclohexanecarbonyl-1,2,3,4-tetrahydroquinolin-2-ylmethyl)-4-(3-methoxyphenyl)piperazine]"
2,8.64,"CC(C)(C)NC(=O)N1c2ccccc2CCC1CN1CCN(c2cccc3c2OCCO3)CC1 (centres unmarked) [Example 76A13, 1-(2,3-Dihydrobenzo[1,4]dioxin-5-yl)-4-[1-(1,1-dimethylethylaminocarbonyl)-1,2,3,4-tetrahydroquinolin-2-ylmethyl]piperazine]"
3,7.67,"O=S(=O)(c1ccccc1)N1c2ccccc2CCC1CN1CCN(c2cccc3c2OCCO3)CC1 (centres unmarked) [Example 76A10, 1-(1-Benzenesulphonyl-1,2,3,4-tetrahydroquinolin-2-ylmethyl)-4-(2,3-dihydrobenzo[1,4]dioxin-5-yl)piperazine]"
4,8.41,"O=C(C1CCCCC1)N1c2ccccc2CCC1CN1CCC(c2ccccc2Cl)CC1 (centres unmarked) [Example 72A69, 4-(2-Chlorophenyl)-1-(1-cyclohexanecarbonyl-1,2,3,4-tetrahydroquinolin-2-ylmethyl)piperidine]"
5,8.00,"O=C(C1CCCCC1)N1c2ccccc2CCC1CN1CCN(c2ccnc3ccccc23)CC1 (centres unmarked) [Example 72A94, 1-(1-Cyclohexanecarbonyl-1,2,3,4-tetrahydroquinolin-2-ylmethyl)-4-(4-quinolyl)piperazine]"
6,7.96,"Cc1cccc(N2CCN(CC3CCc4ccccc4N3C(=O)C3CCCCC3)CC2)c1 (centres unmarked) [Example 72A30, 1-(1-Cyclohexanecarbonyl-1,2,3,4-tetrahydroquinolin-2-ylmethyl)-4-(3-methylphenyl)piperazine]"
7,8.19,"Cc1c(F)cccc1C1CCN(CC2CCc3ccccc3N2C(=O)C2CCCCC2)CC1 (centres unmarked) [Example 72A57, 1-(1-Cyclohexanecarbonyl-1,2,3,4-tetrahydroquinolin-2-ylmethyl)-4-(3-fluoro-2-methylphenyl)piperidine]"
8,8.37,"CN(CCOc1cccc2[nH]ccc12)CC1CCc2ccccc2N1C(=O)C1CCCCC1 (centres unmarked) [Example 72A86, N-(1-Cyclohexanecarbonyl-1,2,3,4-tetrahydroquinolin-2-ylmethyl)-2-[4-(1H)-indolyloxy]ethylmethylamine]"
9,8.27,"CC(=O)N1CCC(C(=O)N2c3ccccc3CCC2CN2CCN(c3nccc4ccccc34)CC2)CC1 (centres unmarked) [Example 75A7, 1-[1-(1-Acetyl-4-piperidinecarbonyl)-1,2,3,4-tetrahydroquinolin-2-ylmethyl]-4-(1-isoquinolinyl)piperazine]"
